Data reported in US10695314B2, “Antimicrobial composition containing 7,10-epoxyoctadeca-7,9-dienoic acid as active ingredient” (priority 2016, dated 2020).
Values after ≈ are worked out from the molar mass of the structure shown. Read-outs that look alike come from different tables or passages of the source. Values belong to the compound of their own block, whether it stands above or below them.

Experiments:
MDRSA 01ST001 [1] = experiment: Agar disk diffusion analysis, zone of inhibition (ZOI); format: cell-based, Staphylococcus aureus; conditions: for antimicrobial activity effect in combination with 7,10-EODA: antibiotic treated in combination with 7,10-EODA, Table 1 summary; for ZOI without 7.10-EODA / ZOI with 7.10-EODA: strain 001; for ZOI without 7.10-EODA: antibiotic ½×MIC alone; for ZOI with 7.10-EODA: antibiotic ½×MIC with 7,10-EODA ¼×MIC; for antimicrobial activity, disk diffusion: 100 μg each, FIG. 4
Procedure: (§1) For synergy effect screening, a 0.1 mL aliquot of MRSA or MSSA strain (5×10^5 CFU/mL) cultured in a log-phase on TSA plates was inoculated. […] A disk including DMSO alone or 7,10-EODA alone (¼×MIC) was used as a control group. The plates were cultured under conditions of […] and 24 hours, and a synergistic effect was observed when the disk periphery including both antibiotic and 7,10-EODA was at least 5 mm in zone of inhibition (ZOI).
Specifically, in order to compare the antimicrobial activity of the 7,10-EODA or the antibiotic of the present invention against the MDRSA 01ST001 strain, the MDRSA 01ST001 strain was treated with the 7,10-EODA (E 100 μg) of the present invention, streptomycin (S, 100 μg), ampicillin (A, 100 μg), oxacillin (O, 100 μg), vancomycin (V, 100 μg), or penicillin (P, 100 μg), according to the method described in Experimental Example 5.
(§2) Specifically, the minimal inhibitory concentration (MIC) was measured according to the method of Experimental Example 4 above, and the degree of inhibition (Agar diffusion analysis) (zone of inhibition; ZOI) was measured according to the method of Experimental Example 5 above.

[2] = tested on: Staphylococcus aureus ATCC 29213; experiment: as above; format: cell-based; conditions: strain 29213; for ZOI without 7.10-EODA: antibiotic ½×MIC alone; for ZOI with 7.10-EODA: antibiotic ½×MIC with 7,10-EODA ¼×MIC
Procedure: as §1, §2

MDRSA 01ST001 [3] = experiment: Minimal inhibitory concentration (MIC), broth microdilution per CLSI
[4] = tested on: Staphylococcus aureus ATCC 29213; experiment: as above; format: cell-based; conditions: strain 29213 (ATCC 29213), antibiotic alone
Procedure: The minimum inhibitory concentration (MIC) of antibiotics and the activity of 7,10-EODA of the present invention against Staphylococcus aureus strains were measured according to the CLSI guideline (CLSI document M100-517, 2007). Specifically, each antibiotic or 7,10-EODA was diluted 2-fold (200-0.97 μg/mL) by adding MHB (Mueller-Hinton Broth) to a 96-well microtiter plate. In the mid-exponential phase (0.5 OD600), the culture was diluted 10-fold with MHB and 0.1 mL aliquots of the diluent were added to wells containing the serially diluted test reagent and cultured at 37° C. for 12 hours. About the end of the culture period, the cell density was measured at an optical density of 600 nm (OD600) using a […].
as §2

[5] = tested on: Staphylococcus aureus ATCC 29213; experiment: Antimicrobial activity on solid medium (clear zone around filter paper); format: cell-based; conditions: FIG. 3
Procedure: (§3) First, 1.5% of potato agar was added to the YDP medium, sterilized, and then an agar plate hardened by pouring about 20 ml in a plastic Petri dish was used. MRSA 01ST001 was diluted to about 107/ml, and then about 500 μl was dispersed evenly on the agar plate.
(§4) The size of the clear zone around the filter paper shown after the culture at 37° C. for 2 to 3 days after the inoculation was measured to confirm the degree of antimicrobial activity. At this time, vancomycin 100 μg, oxacillin 100 μg, ampicillin 100 μg, streptomycin 100 μg, and penicillin 100 μg were used as control groups.
(§5) The antimicrobial activity can be confirmed with the degree showing the clear zone on the agar plate. It is judged that the larger the clear zone, the higher the antimicrobial activity. The results are illustrated in FIG. 1 and FIG. 2.
(§6) The results are illustrated in FIG. 3. The experiment was carried out in the same manner as in Example 1-2.

[6] = tested on: MRSA 01ST001 (MDRSA 01ST001); experiment: as above; format: cell-based, Staphylococcus aureus; conditions: for clear zone on agar plate: 100 μg per filter paper, 37° C., 2 to 3 days, FIG. 1
Procedure: as §3, §4, §5, §6

[7] = strain 001 (MDRSA 01ST001), antibiotic alone
[8] = Staphylococcus aureus, ATCC29213, read-out: MIC

Compound: O=C(O)c1cn(C2CC2)c2cc(N3CCNCC3)c(F)cc2c1=O [CIP, ciprofloxacin]
antimicrobial activity effect in combination with 7,10-EODA (MDRSA 01ST001 [1]): strong antimicrobial activity effect | ZOI without 7.10-EODA (MDRSA 01ST001 [1]): 6.0 ± 0.0 mm | ZOI with 7.10-EODA (MDRSA 01ST001 [1]): 13.2 mm | ZOI without 7.10-EODA [2]: 9.6 ± 0.2 mm | ZOI with 7.10-EODA [2]: 13.2 mm

Compound: Oc1cc(Cl)ccc1Oc1ccc(Cl)cc1Cl [IRG, irgasan]
ZOI without 7.10-EODA (MDRSA 01ST001 [1]): 12.4 ± 0.3 mm | ZOI with 7.10-EODA (MDRSA 01ST001 [1]): 13.8 mm | MIC (MDRSA 01ST001 [3]; [7]): 0.1 µg/mL (≈ 0.345 µM) | ZOI without 7.10-EODA [2]: 11.1 ± 0.5 mm | ZOI with 7.10-EODA [2]: 10.0 mm | MIC [4]: 0.1 µg/mL (≈ 0.345 µM)

MIC (MDRSA 01ST001 [3]; Staphylococcus aureus): 7.8 µg/mL (≈ 26.9 µM) | MIC [4, 8]: 7.8 µg/mL (≈ 26.9 µM)
Compound: COc1cc(Cc2cnc(N)nc2N)cc(OC)c1OC [TMP, trimethoprim]
ZOI without 7.10-EODA (MDRSA 01ST001 [1]): 6.0 ± 0.0 mm | ZOI with 7.10-EODA (MDRSA 01ST001 [1]): 6.00 mm | ZOI without 7.10-EODA [2]: 8.9 ± 0.1 mm | ZOI with 7.10-EODA [2]: 12.3 mm

MIC (MDRSA 01ST001 [3]; Staphylococcus aureus): 1000 µg/mL (≈ 2880 µM) | MIC [4, 8]: 1.97 µg/mL (≈ 5.67 µM)
Compound: CC1=C(C(=O)O)N2C(=O)[C@@H](NC(=O)[C@H](N)c3ccccc3)[C@H]2SC1 [CEP, cephalexin]
ZOI without 7.10-EODA (MDRSA 01ST001 [1]): 10.1 ± 1.3 mm | ZOI with 7.10-EODA (MDRSA 01ST001 [1]): 13.1 mm | ZOI without 7.10-EODA [2]: 15.3 ± 0.1 mm | ZOI with 7.10-EODA [2]: 15.3 mm

Compound: CN[C@H](CC(C)C)C(=O)N[C@H]1C(=O)N[C@@H](CC(N)=O)C(=O)N[C@H]2C(=O)N[C@H]3C(=O)N[C@H](C(=O)N[C@H](C(=O)O)c4cc(O)cc(O)c4-c4cc3ccc4O)[C@H](O)c3ccc(c(Cl)c3)Oc3cc2cc(c3O[C@@H]2O[C@H](CO)[C@@H](O)[C@H](O)[C@H]2O[C@H]2C[C@](C)(N)[C@H](O)[C@H](C)O2)Oc2ccc(cc2Cl)[C@H]1O [vancomycin]
antimicrobial activity on solid medium [5]: same antimicrobial activity | clear zone on agar plate [6]: clear zone appeared | antimicrobial activity on solid medium ([6]; MDRSA 01ST001, FIG. 3): same antimicrobial activity

Compound: penicillin
antimicrobial activity, disk diffusion (MDRSA 01ST001 [1]): resistant | antimicrobial activity effect in combination with 7,10-EODA (MDRSA 01ST001 [1]): strong antimicrobial activity effect | ZOI without 7.10-EODA (MDRSA 01ST001 [1]): 7.1 ± 0.1 mm | ZOI with 7.10-EODA (MDRSA 01ST001 [1]): 13.6 mm | degree of decrease of the MIC90 value of penicillin versus no 7,10-EODA (MDRSA 01ST001 [3]; 7,10-EODA at 1/16 of its original MIC90): 1/32 | degree of decrease of the MIC90 value of penicillin versus no 7,10-EODA (MDRSA 01ST001 [3]; 7,10-EODA at ⅛ of its original MIC90): ¼ | MIC90 value of penicillin (MDRSA 01ST001 [3]; 7,10-EODA not used in combination, OD600): 350 µg/mL | MIC90 value of penicillin (MDRSA 01ST001 [3]; in combination with 7.5 μg/mL 7,10-EODA (1/16 of its MIC90)): 87.5 µg/mL | MIC90 value of penicillin (MDRSA 01ST001 [3]; in combination with 15.0 μg/mL 7,10-EODA (⅛ of its MIC90)): 10.9 µg/mL | MIC (MDRSA 01ST001 [3]; [7]): 1000.0 µg/mL | clear zone on agar plate [6]: no clear zone appeared | ZOI without 7.10-EODA [2]: 12.9 ± 0.4 mm | ZOI with 7.10-EODA [2]: 13.2 mm | MIC [4]: 0.5 µg/mL

Compound: O=C(N[C@H](CO)[C@H](O)c1ccc([N+](=O)[O-])cc1)C(Cl)Cl [CPL, chloramphenicol]
ZOI without 7.10-EODA (MDRSA 01ST001 [1]): 13.2 ± 0.4 mm | ZOI with 7.10-EODA (MDRSA 01ST001 [1]): 13.9 mm | MIC (MDRSA 01ST001 [3]; Staphylococcus aureus): 10 µg/mL (≈ 30.9 µM) | ZOI without 7.10-EODA [2]: 7.4 ± 0.2 mm | ZOI with 7.10-EODA [2]: 7.21 mm | MIC [4, 8]: 10 µg/mL (≈ 30.9 µM)

Compound: [H]/N=C(/N)N[C@H]1[C@H](O)[C@@H](O)[C@H](O[C@@H]2O[C@@H](C)[C@](O)(C=O)[C@H]2O[C@@H]2O[C@@H](CO)[C@H](O)[C@@H](O)[C@@H]2NC)[C@@H](N/C(N)=N\[H])[C@@H]1O [STP, streptomycin]
antimicrobial activity, disk diffusion (MDRSA 01ST001 [1]): resistant | antimicrobial activity effect in combination with 7,10-EODA (MDRSA 01ST001 [1]): strong antimicrobial activity effect | ZOI without 7.10-EODA (MDRSA 01ST001 [1]): 6.0 ± 0.0 mm | ZOI with 7.10-EODA (MDRSA 01ST001 [1]): 12.9 mm | MIC (MDRSA 01ST001 [3]; Staphylococcus aureus): 62.5 µg/mL (≈ 107 µM) | clear zone on agar plate [6]: no clear zone appeared | ZOI without 7.10-EODA [2]: 6.0 ± 0.0 mm | ZOI with 7.10-EODA [2]: 11.4 mm | MIC [4, 8]: 3 µg/mL (≈ 5.16 µM)

Compound: CO[C@H]1/C=C/O[C@@]2(C)Oc3c(C)c(O)c4c(O)c(c(/C=N/N5CCN(C)CC5)c(O)c4c3C2=O)NC(=O)/C(C)=C\C=C\[C@H](C)[C@H](O)[C@@H](C)[C@@H](O)[C@@H](C)[C@H](OC(C)=O)[C@@H]1C [RIF, rifampicin]
ZOI without 7.10-EODA (MDRSA 01ST001 [1]): 18.3 ± 0.2 mm | ZOI with 7.10-EODA (MDRSA 01ST001 [1]): 20.2 mm | MIC (MDRSA 01ST001 [3]; Staphylococcus aureus): 5 µg/mL (≈ 6.08 µM) | ZOI without 7.10-EODA [2]: 21.0 ± 0.8 mm | MIC [4, 8]: 5 µg/mL (≈ 6.08 µM)

MIC (MDRSA 01ST001 [3]; Staphylococcus aureus): 62.5 µg/mL (≈ 196 µM) | MIC [4, 8]: 125 µg/mL (≈ 392 µM)
Compound: CN(C)CCCN1c2ccccc2Sc2ccc(Cl)cc21 [CPZ, chlorpromazine]
ZOI without 7.10-EODA (MDRSA 01ST001 [1]): 7.2 ± 0.1 mm | ZOI with 7.10-EODA (MDRSA 01ST001 [1]): 12.0 mm | ZOI without 7.10-EODA [2]: 6.0 ± 0.0 mm | ZOI with 7.10-EODA [2]: 8.05 mm
